Experimental findings from patent US9398761B2, “Transgenic animal model of mood disorders” (BRAINCO BIOPHARMA, S.L., priority 2012, dated 2016) are described below.

In this assay the test system is wild-type (WT) and PTN transgenic (TG) mice. Nature of the assay: Novelty Suppressed Feeding Test after chronic fluoxetine treatment. Format: in vivo, mouse. The settings on record: 4 weeks; for Latency to feed, treated versus untreated: fluoxetine in drinking water 160 mg/l, one-way ANOVA on rank-transformed data.

Entries after “also recorded” stand apart in the source; their conditions may differ.

Procedure: Novelty suppressed feeding test assesses anxiety and/or depression by measuring the latency of an animal to approach and eat food in a novel environment following chronic treatment with antidepressants. Mice (WT=14 and TG=14) were separated in two experimental groups: Without fluoxetine treatment and with fluoxetine treatment. The Fluoxetine was delivered ad libitum in the drinking water at a concentration of 160 mg/l (approximately doses of 20-25 mg/kg/day) during 4 weeks. Mice were weighed and food was removed from their cage. Twenty four hr after removal of food, mice were transferred to the testing room, placed in a clean holding cage and allowed to habituate for at least 30 min. The testing apparatus consisted of a clear Plexiglas open-field (50×50×25 cm) under an aversive condition (100 lux luminosity). The floor was covered with 2 cm of corncob bedding. A small piece of mouse chow was placed in the center of the arena. At the start of the experiment, each mouse was placed in the corner of the testing area, and the time to the first feeding event was recorded. After all mice from a single cage were tested, mice were returned to their home cage. A longer latency to feed reflects an anxiety-like behaviour. […] Measurement of Latency to feed were rank-transformed (Conover and Iman, 1981) and subjected to a Two-way ANOVA having two levels of genotype (wild-type or WT and transgenic or TG) and two levels of treatment (without fluoxetine or −Flx and with fluoxetine or +Flx).

As to `CNCCC(Oc1ccc(C(F)(F)F)cc1)c1ccccc1` (stereo not shown) [Fluoxetine], the “Sensitivity to the effect of fluoxetine, Tg compared with Wt” value (Novelty Suppressed Feeding Test, chronic treatment) is recorded as “more sensitive”. The “Latency to feed, treated versus untreated” value is given as “significant difference; also recorded: reversed” (TG (PTN-overexpressing) mice) and “No significant differences” (WT mice). Further, the “Latency to feed, main effect of treatment (two-way ANOVA)” value (WT and TG mice, fluoxetine in drinking water 160 mg/l (approx. 20-25 mg/kg/day), with vs without fluoxetine) is listed as “significant”.
